Data on 34 molecules can be found in ChEMBL document CHEMBL4765313, “Synthesis, in vitro evaluation and molecular docking of a new class of indolylpropyl benzamidopiperazines as dual AChE and SERT ligands for Alzheimer's disease” (Eur J Med Chem, 2020).

In general, pIC50 refers to −log10 of the IC50, conventionally taken in molar units. By inhibition is commonly meant the percentage by which the read-out fell short of the control.

One data set deals with Acetylcholinesterase (Homo sapiens, UniProt P22303). The data set can be described thus: Inhibition of human plasma AChE using acetylthiocholine iodide as substrate preincubated for 15 mins followed by substrate addition and measured after 10 mins by Ellman's method. In kind it is cell-free.
Acetylcholinesterase, sequence (P22303 whole entry): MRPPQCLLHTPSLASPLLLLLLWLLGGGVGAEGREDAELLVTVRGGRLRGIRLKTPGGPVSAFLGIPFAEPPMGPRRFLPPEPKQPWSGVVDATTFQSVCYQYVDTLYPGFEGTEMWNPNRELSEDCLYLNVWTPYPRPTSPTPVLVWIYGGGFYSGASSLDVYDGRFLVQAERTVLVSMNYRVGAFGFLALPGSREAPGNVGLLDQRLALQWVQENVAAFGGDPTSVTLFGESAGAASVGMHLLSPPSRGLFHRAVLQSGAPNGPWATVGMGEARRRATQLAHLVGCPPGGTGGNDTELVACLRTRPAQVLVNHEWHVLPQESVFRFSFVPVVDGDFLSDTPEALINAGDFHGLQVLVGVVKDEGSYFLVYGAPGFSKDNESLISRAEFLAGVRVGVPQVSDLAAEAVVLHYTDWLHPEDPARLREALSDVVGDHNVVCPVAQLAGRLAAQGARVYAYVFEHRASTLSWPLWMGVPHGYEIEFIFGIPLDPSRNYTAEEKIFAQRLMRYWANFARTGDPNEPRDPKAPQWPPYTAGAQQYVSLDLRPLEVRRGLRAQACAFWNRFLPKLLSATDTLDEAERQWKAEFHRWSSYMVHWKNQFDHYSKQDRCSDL
Data set [1] is described as follows: Solubility of compound at pH 7.4 at 1 to 100 uM. It is filed as physicochemical. The conditions noted are these: buffer, pH 7.4, 100 µM; dose 1-100 µM.
The subject of another data set is HEK293. Kind of data set: Cytotoxicity against human HEK293 cells assessed as reduction in cell viability incubated for 72 hrs by MTT assay. It is filed as ADME, cell-based. The conditions noted are these: HEK293, 72 h.
For data set [2], the target named is Sodium-dependent serotonin transporter (Homo sapiens, UniProt P31645). Kind of data set: Displacement of [3H]paroxetine from human SERT expressed in human HEK293 cells incubated for 30 mins by liquid scintillation counting analysis. In kind it is cell-based. On the technique in general: Loss of bound radioactivity is the signal in a displacement assay; it reports binding, not function.
Sodium-dependent serotonin transporter, sequence (P31645 whole entry): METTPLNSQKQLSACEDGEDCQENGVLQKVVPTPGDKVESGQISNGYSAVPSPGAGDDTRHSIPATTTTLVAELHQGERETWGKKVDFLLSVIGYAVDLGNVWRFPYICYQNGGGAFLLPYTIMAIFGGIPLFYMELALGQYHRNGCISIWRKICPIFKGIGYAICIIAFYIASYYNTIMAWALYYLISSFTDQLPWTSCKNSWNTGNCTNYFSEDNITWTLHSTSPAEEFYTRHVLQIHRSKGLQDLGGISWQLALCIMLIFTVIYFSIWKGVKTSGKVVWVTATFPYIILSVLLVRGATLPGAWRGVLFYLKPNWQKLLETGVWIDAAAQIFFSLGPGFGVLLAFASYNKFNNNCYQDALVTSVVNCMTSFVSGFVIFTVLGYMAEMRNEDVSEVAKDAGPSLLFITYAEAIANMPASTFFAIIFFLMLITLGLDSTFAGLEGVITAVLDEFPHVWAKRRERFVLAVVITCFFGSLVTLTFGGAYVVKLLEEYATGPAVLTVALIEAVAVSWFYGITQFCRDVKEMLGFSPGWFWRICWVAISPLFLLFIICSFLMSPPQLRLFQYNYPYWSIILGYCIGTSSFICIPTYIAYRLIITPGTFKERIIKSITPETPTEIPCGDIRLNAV

The next data set deals with SH-SY5Y. Kind of data set: Cytotoxicity against human SH-SY5Y cells assessed as reduction in cell viability incubated for 72 hrs by MTT assay. In kind it is ADME, cell-based. A general note: Tetrazolium assays rely on reduction of a dye to a coloured formazan, in cell work by metabolically active cells.
Data set [3] can be described thus: Reduction of beta-Amyloid40 level in mouse N2a cells transfected with human APP695 at 10 uM incubated for 16 hrs by ELISA relative to control. In kind it is functional. A general note: In an ELISA, binding on a coated surface is turned into a signal by an enzyme label.

SMILES strings stand for the structures. pIC50: −log10 of the molar value. A value given as a limit tells only on which side of the number the result lay.

Regarding `O=C(CN1CCN(C(=O)c2cccc(Br)c2)CC1)N1CCN(CCCc2c[nH]c3ccc(F)cc23)CC1`, the pIC50 against Acetylcholinesterase is 4.43; in the data set on HEK293, 4.39; in data set [2] it was 3.74; with SH-SY5Y, 4.15. For the same molecule, the solubility entry in data set [1] is “Soluble”.
For `COc1ccc(C(=O)N2CCN(CC(=O)N3CCN(CCCc4c[nH]c5ccccc45)CC3)CC2)cc1`, in that order: 4.60, 3.81, less than 3.00, 3.83 and “Soluble”.
For `O=C(CN1CCN(C(=O)c2ccc(Cl)cc2)CC1)N1CCN(CCCc2c[nH]c3ccc(F)cc23)CC1`, in that order: 4.65, 4.35, 3.26, 3.90 and “Soluble”.
The matching figures for `O=C(CN1CCN(C(=O)c2ccccc2)CC1)N1CCN(CCCc2c[nH]c3ccccc23)CC1`: less than 4.30, less than 3.70, less than 3.00, less than 3.70 and “Soluble”.
For `O=C(CN1CCN(C(=O)c2ccc(Br)cc2)CC1)N1CCN(CCCc2c[nH]c3ccc(F)cc23)CC1`, the pIC50 against Acetylcholinesterase was 4.40; in the data set on HEK293, 4.22; in data set [2], 5.04; with SH-SY5Y, 4.32. The solubility entry in data set [1] is “Soluble”.
For `COc1ccc2[nH]cc(CCCN3CCN(C(=O)CN4CCN(C(=O)c5ccc(Cl)cc5)CC4)CC3)c2c1`, in that order: less than 4.30, 3.93, less than 3.00, 3.80 and “Soluble”.
For `O=C(CN1CCN(C(=O)c2cccc(Cl)c2)CC1)N1CCN(CCCc2c[nH]c3ccccc23)CC1`, in that order: 4.49, 4.00, less than 3.00, 3.92 and “Soluble”.
The matching figures for `O=C(CN1CCN(C(=O)c2cccc(F)c2)CC1)N1CCN(CCCc2c[nH]c3ccc(F)cc23)CC1`: less than 4.30, 4.08, 4.16, 3.77 and “Soluble”.
In turn, `COc1cc2c(cc1OC)C(=O)C(CC1CCN(Cc3ccccc3)CC1)C2` (stereo not given) [DONEPEZIL] had a pIC50 in data set [2] of less than 3.00.
For `O=C(CN1CCN(C(=O)c2ccccc2)CC1)N1CCN(CCCc2c[nH]c3ccc(F)cc23)CC1`, the negative-log IC50 (pIC50) was less than 4.30 against Acetylcholinesterase, 3.83 in the data set on HEK293, 3.49 in data set [2] and 3.84 in the data set with SH-SY5Y. The solubility entry in data set [1] was “Soluble”.
The matching figures for `Cc1ccc(C(=O)N2CCN(CC(=O)N3CCN(CCCc4c[nH]c5ccccc45)CC3)CC2)cc1`: 4.53, 3.80, less than 3.00, less than 3.70 and “Soluble”.
For `COc1ccc2[nH]cc(CCCN3CCN(C(=O)CN4CCN(C(=O)c5ccccc5Br)CC4)CC3)c2c1`, in that order: less than 4.30, 3.79, less than 3.00, 3.95 and “Soluble”.
Regarding `Cc1ccc(C(=O)N2CCN(CC(=O)N3CCN(CCCc4c[nH]c5ccc(F)cc45)CC3)CC2)cc1`, the pIC50 against Acetylcholinesterase was 5.44; with HEK293 it was 3.85; in data set [2], 3.91; in the data set with SH-SY5Y, 3.92. Further, the solubility result in data set [1] is “Soluble”.
With `O=C(CN1CCN(C(=O)c2cccc(F)c2)CC1)N1CCN(CCCc2c[nH]c3ccccc23)CC1`, the pIC50 is less than 4.30 at Acetylcholinesterase, 3.74 in the data set with HEK293, less than 3.00 in data set [2] and 3.78 with SH-SY5Y. Besides, in data set [1], the solubility result was “Soluble”.
The matching figures for `O=C(CN1CCN(C(=O)c2ccccc2F)CC1)N1CCN(CCCc2c[nH]c3ccccc23)CC1`: 4.69, 3.87, less than 3.00, 4.08 and “Soluble”.
The matching figures for `COc1cccc(C(=O)N2CCN(CC(=O)N3CCN(CCCc4c[nH]c5ccccc45)CC3)CC2)c1`: less than 4.30, 3.84, less than 3.00, less than 3.70 and “Soluble”.
For `COc1ccc2[nH]cc(CCCN3CCN(C(=O)CN4CCN(C(=O)c5ccc(Br)cc5)CC4)CC3)c2c1`, in that order: less than 4.30, 4.09, less than 3.00, 3.82 and “Soluble”.
`COc1ccc2[nH]cc(CCCN3CCN(C(=O)CN4CCN(C(=O)c5cccc(F)c5)CC4)CC3)c2c1`: the pIC50 on Acetylcholinesterase is 4.43; in the data set with HEK293, less than 3.70; in data set [2], less than 3.00; with SH-SY5Y, less than 3.70. Besides, the solubility entry in data set [1] is “Soluble”.
For `O=C(CN1CCN(C(=O)c2cccc(Cl)c2)CC1)N1CCN(CCCc2c[nH]c3ccc(F)cc23)CC1`, the pIC50 against Acetylcholinesterase was 4.74; with HEK293, 4.18; in data set [2], 3.83; in the data set on SH-SY5Y, 4.22. Further, the solubility result in data set [1] is “Soluble”.
For the molecule `CN(C)CCCC1(c2ccc(F)cc2)OCc2cc(C#N)ccc21` (stereo not given) [CITALOPRAM], the pIC50 is 4.13 against Acetylcholinesterase, less than 3.70 in the data set on HEK293 and less than 3.70 in the data set on SH-SY5Y.
Turning to `COc1ccc2[nH]cc(CCCN3CCN(C(=O)CN4CCN(C(=O)c5ccc(F)cc5)CC4)CC3)c2c1`, the pIC50 against Acetylcholinesterase was less than 4.30; in the data set with HEK293 it was less than 3.70; in data set [2], less than 3.00; in the data set on SH-SY5Y it was less than 3.70. In data set [1], the solubility entry is given as “Soluble”.
For the molecule `COc1ccc2[nH]cc(CCCN3CCN(C(=O)CN4CCN(C(=O)c5ccccc5)CC4)CC3)c2c1`, the pIC50 is less than 4.30 at Acetylcholinesterase, less than 3.70 with HEK293, less than 3.00 in data set [2] and less than 3.70 in the data set with SH-SY5Y. The solubility entry in data set [1] is reported as “Soluble”. In data set [3], this molecule had an inhibition at 10 µM of 37%.
In the case of `O=C(CN1CCN(C(=O)c2ccc(F)cc2)CC1)N1CCN(CCCc2c[nH]c3ccc(F)cc23)CC1`, the pIC50 was 5.47 at Acetylcholinesterase, 3.99 with HEK293, 3.67 in data set [2] and 3.92 in the data set with SH-SY5Y. Also, the solubility result in data set [1] was “Soluble”.
On to `O=C(CN1CCN(C(=O)c2ccc(Cl)cc2)CC1)N1CCN(CCCc2c[nH]c3ccccc23)CC1`, for which the pIC50 was 4.45 on Acetylcholinesterase, 4.01 in the data set with HEK293, less than 3.00 in data set [2] and 3.86 in the data set with SH-SY5Y. Besides, the solubility entry in data set [1] is recorded as “Soluble”.
The matching figures for `O=C(CN1CCN(C(=O)c2ccc(F)cc2)CC1)N1CCN(CCCc2c[nH]c3ccccc23)CC1`: 4.40, 3.85, less than 3.00, 3.72 and “Soluble”.
For `COc1ccc2[nH]cc(CCCN3CCN(C(=O)CN4CCN(C(=O)c5cccc(Cl)c5)CC4)CC3)c2c1`, in that order: less than 4.30, 3.85, less than 3.00, less than 3.70 and “Soluble”.
The matching figures for `COc1cccc(C(=O)N2CCN(CC(=O)N3CCN(CCCc4c[nH]c5ccc(OC)cc45)CC3)CC2)c1`: less than 4.30, less than 3.70, less than 3.00, less than 3.70 and “Soluble”.
Regarding `COc1ccc2[nH]cc(CCCN3CCN(C(=O)CN4CCN(C(=O)c5cccc(Br)c5)CC4)CC3)c2c1`, the pIC50 against Acetylcholinesterase was less than 4.30; in the data set on HEK293, 4.24; in data set [2], less than 3.00; with SH-SY5Y, 3.98. In data set [1], the solubility result is recorded as “Soluble”.
The matching figures for `O=C(CN1CCN(C(=O)c2ccc(Br)cc2)CC1)N1CCN(CCCc2c[nH]c3ccccc23)CC1`: 4.45, 4.14, less than 3.00, 4.23 and “Soluble”.
For `COc1ccc2[nH]cc(CCCN3CCN(C(=O)CN4CCN(C(=O)c5ccc(C)cc5)CC4)CC3)c2c1`, in that order: less than 4.30, 3.83, less than 3.00, less than 3.70 and “Soluble”.
For the molecule `COc1ccc(C(=O)N2CCN(CC(=O)N3CCN(CCCc4c[nH]c5ccc(OC)cc45)CC3)CC2)cc1`, the pIC50 was less than 4.30 on Acetylcholinesterase, 3.72 in the data set with HEK293, less than 3.00 in data set [2] and 3.72 in the data set with SH-SY5Y. Also, the solubility entry in data set [1] was “Soluble”.
As for `O=C(CN1CCN(C(=O)c2ccccc2Br)CC1)N1CCN(CCCc2c[nH]c3ccc(F)cc23)CC1`, the pIC50 was 4.48 on Acetylcholinesterase, 4.11 with HEK293, 5.72 in data set [2] and 4.10 in the data set on SH-SY5Y. The solubility result in data set [1] is reported as “Soluble”.
For `COc1ccc(C(=O)N2CCN(CC(=O)N3CCN(CCCc4c[nH]c5ccc(F)cc45)CC3)CC2)cc1`, in that order: 4.84, 3.85, 3.88, 3.79 and “Soluble”.
The matching figures for `COc1cccc(C(=O)N2CCN(CC(=O)N3CCN(CCCc4c[nH]c5ccc(F)cc45)CC3)CC2)c1`: 4.71, 4.06, 4.08, 4.10 and “Soluble”.
